Measurements: US10758534B2 (Vertex Pharmaceuticals Incorporated, priority 2014, dated 2020)

Molecular target: T1, F508del (Homo sapiens, UniProt P13569, DEL508-508)
T1 construct: expressed in transfected cells
Experiment: Protocol 1: membrane potential optical assay (FLIPR III, voltage sensing dye), identification of potentiator compounds
Format: cell-based
Conditions: Table 3, compounds of Table 1
How it was run: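 Gating potentiation is read as a membrane-potential fluorescence change (FLIPR III, voltage-sensing dye) after one forskolin addition under a Cl− gradient, with gluconate replacing chloride, pH 7.4. Cells are F508del-expressing NIH3T3 mouse fibroblasts held 24 h at 27 °C and exposed to compound before dye loading.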

T1 sequence (P13569 with tags, fused parts or gaps DEL508-508): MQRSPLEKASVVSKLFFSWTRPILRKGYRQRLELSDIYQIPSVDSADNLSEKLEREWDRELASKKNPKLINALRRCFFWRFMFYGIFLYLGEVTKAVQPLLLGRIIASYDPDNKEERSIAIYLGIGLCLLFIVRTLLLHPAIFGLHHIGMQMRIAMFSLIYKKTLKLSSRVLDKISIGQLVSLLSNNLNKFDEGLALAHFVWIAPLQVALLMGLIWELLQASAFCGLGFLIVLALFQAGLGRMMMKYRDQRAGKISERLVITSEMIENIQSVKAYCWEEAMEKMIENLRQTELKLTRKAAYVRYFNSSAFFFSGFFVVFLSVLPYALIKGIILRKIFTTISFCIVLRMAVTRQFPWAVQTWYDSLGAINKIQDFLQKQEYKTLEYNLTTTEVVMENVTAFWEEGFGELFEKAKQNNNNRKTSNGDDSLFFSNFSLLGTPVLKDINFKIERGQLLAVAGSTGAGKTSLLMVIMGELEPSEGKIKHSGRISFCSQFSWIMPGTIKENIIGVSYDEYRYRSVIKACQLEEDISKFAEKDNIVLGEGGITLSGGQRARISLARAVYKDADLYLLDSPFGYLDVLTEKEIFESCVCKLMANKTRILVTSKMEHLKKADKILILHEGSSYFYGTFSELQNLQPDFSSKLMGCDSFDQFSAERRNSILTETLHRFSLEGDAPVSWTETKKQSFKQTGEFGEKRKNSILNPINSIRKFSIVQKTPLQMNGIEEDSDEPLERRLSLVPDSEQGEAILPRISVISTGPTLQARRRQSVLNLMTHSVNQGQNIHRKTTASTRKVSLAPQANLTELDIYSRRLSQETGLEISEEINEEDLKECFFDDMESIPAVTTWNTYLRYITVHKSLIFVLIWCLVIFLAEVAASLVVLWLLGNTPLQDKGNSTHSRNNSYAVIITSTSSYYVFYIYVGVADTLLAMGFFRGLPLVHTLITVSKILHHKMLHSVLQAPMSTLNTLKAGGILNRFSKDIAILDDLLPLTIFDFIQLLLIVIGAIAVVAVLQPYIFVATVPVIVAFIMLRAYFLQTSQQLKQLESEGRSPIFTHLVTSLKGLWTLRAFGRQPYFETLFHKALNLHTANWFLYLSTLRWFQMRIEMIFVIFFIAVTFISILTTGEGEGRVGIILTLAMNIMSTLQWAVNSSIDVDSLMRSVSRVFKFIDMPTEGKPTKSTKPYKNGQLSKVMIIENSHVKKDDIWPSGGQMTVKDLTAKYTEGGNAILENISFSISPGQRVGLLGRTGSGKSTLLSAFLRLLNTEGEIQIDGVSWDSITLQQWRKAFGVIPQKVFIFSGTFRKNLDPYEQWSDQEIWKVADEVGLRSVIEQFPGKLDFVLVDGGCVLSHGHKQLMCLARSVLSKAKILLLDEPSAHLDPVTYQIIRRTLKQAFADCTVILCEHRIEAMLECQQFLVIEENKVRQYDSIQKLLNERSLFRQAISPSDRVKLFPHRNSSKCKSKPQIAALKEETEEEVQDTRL

SMILES | EC30
CC(C)COc1cc(F)cc(-c2ccc(C(=O)NS(=O)(=O)c3ccn[nH]3)c(N3CCC[C@@H]3c3ccccc3)n2)c1 [Compound 1060, 6-(3-fluoro-5-isobutoxy-phenyl)-2-[(2R)-2-phenylpyrrolidin-1-yl]-N-(1H-pyrazol-5-ylsulfonyl)pyridine-3-carboxamide] | +++ (“+++” means <3 uM)
CC(C)COc1cc(F)cc(-c2ccc(C(=O)NS(=O)(=O)c3cccc(N)n3)c(N3CCC4(CC4)C3)n2)c1 [Compound 1061, N-[(6-amino-2-pyridyl)sulfonyl]-2-(6-azaspiro[2.4]heptan-6-yl)-6-(3-fluoro-5-isobutoxy-phenyl)pyridine-3-carboxamide] | +++ (“+++” means <3 uM)
CC1CN(c2nc(-c3cccc(OCC(C)(C)C)n3)ccc2C(=O)NS(=O)(=O)c2cccc(N)n2)C(C)(C)C1 (centres unmarked) [Compound 1062, N-[(6-amino-2-pyridyl)sulfonyl]-6-[6-(2,2-dimethylpropoxy)-2-pyridyl]-2-(2,2,4-trimethylpyrrolidin-1-yl)pyridine-3-carboxamide] | +++ (“+++” means <3 uM)
CC(C)COc1cc(F)cc(-c2ccc(C(=O)NS(=O)(=O)c3ccccn3)c(N3CC(C)CC3(C)C)n2)c1 (centres unmarked) [Compound 1063, 6-(3-fluoro-5-isobutoxy-phenyl)-N-(2-pyridylsulfonyl)-2-(2,2,4-trimethylpyrrolidin-1-yl)pyridine-3-carboxamide] | +++ (“+++” means <3 uM)
CC(C)(C)c1ccc(C(=O)NS(=O)(=O)c2ccc(N)cc2)c(NCc2ccccc2)n1 [Compound 1064, N-(4-aminophenyl)sulfonyl-2-(benzylamino)-6-tert-butyl-pyridine-3-carboxamide] | +++ (“+++” means <3 uM)
CC(C)COc1cc(F)cc(-c2ccc(C(=O)NS(=O)(=O)c3cccc(N)n3)c(N3CCC(C)(C)[C@H]3C)n2)c1 [Compound 1065, N-[(6-amino-2-pyridyl)sulfonyl]-6-(3-fluoro-5-isobutoxy-phenyl)-2-[(2R)-2,3,3-trimethylpyrrolidin-1-yl]pyridine-3-carboxamide] | +++ (“+++” means <3 uM)
Cc1ccc(-c2ccc(C(=O)NS(=O)(=O)c3nccnc3N)c(NCC3(C)CCOCC3)n2)cc1 [Compound 1066, N-(3-aminopyrazin-2-yl)sulfonyl-2-[(4-methyltetrahydropyran-4-yl)methylamino]-6-(p-tolyl)pyridine-3-carboxamide] | ++ (“++” means between 3 uM and 10 uM)
CC1CN(c2nc(-c3cnn(C(C)C)c3)ccc2C(=O)NS(=O)(=O)c2cccc(N)n2)C(C)(C)C1 (centres unmarked) [Compound 1067, N-[(6-amino-2-pyridyl)sulfonyl]-6-(1-isopropylpyrazol-4-yl)-2-(2,2,4-trimethylpyrrolidin-1-yl)pyridine-3-carboxamide] | +++ (“+++” means <3 uM)
CCC(Oc1nc(-c2cc(F)cc(OCC(C)C)c2)ccc1C(=O)NS(=O)(=O)c1cccc(N)n1)c1ccccc1 (centres unmarked) [Compound 1068, N-[(6-amino-2-pyridyl)sulfonyl]-6-(3-fluoro-5-isobutoxy-phenyl)-2-(1-phenylpropoxy)pyridine-3-carboxamide] | +++ (“+++” means <3 uM)
CC(C)COc1cc(F)cc(-c2ccc(C(=O)NS(=O)(=O)c3ccccn3)c(N3CCC(C)(C)CC3)n2)c1 [Compound 1069, 2-(4,4-dimethyl-1-piperidyl)-6-(3-fluoro-5-isobutoxy-phenyl)-N-(2-pyridylsulfonyl)pyridine-3-carboxamide] | +++ (“+++” means <3 uM)
Cc1cc(C)c(Oc2nc(OC(C)(C)C)ccc2C(=O)NS(=O)(=O)c2cccc(N)n2)c(C)c1 [Compound 1070, N-[(6-amino-2-pyridyl)sulfonyl]-6-tert-butoxy-2-(2,4,6-trimethylphenoxy)pyridine-3-carboxamide] | +++ (“+++” means <3 uM)
Cn1ccc2cccc(Oc3nc(C(C)(C)C)ccc3C(=O)NS(=O)(=O)c3cccc(N)n3)c21 [Compound 1071, N-[(6-amino-2-pyridyl)sulfonyl]-6-tert-butyl-2-(1-methylindol-7-yl)oxy-pyridine-3-carboxamide] | +++ (“+++” means <3 uM)
CC(C)Oc1ccc(-c2ccc(C(=O)NS(=O)(=O)c3cccc(N)n3)c(N3Cc4ccccc4C3)n2)cn1 [Compound 1072, N-[(6-amino-2-pyridyl)sulfonyl]-2-isoindolin-2-yl-6-(6-isopropoxy-3-pyridyl)pyridine-3-carboxamide] | ++ (“++” means between 3 uM and 10 uM)
CC(C)COc1cc(F)cc(-c2ccc(C(=O)NS(=O)(=O)c3cccc(N)n3)c(N3CC(=O)CC3(C)C)n2)c1 [Compound 1073, N-[(6-amino-2-pyridyl)sulfonyl]-2-(2,2-dimethyl-4-oxo-pyrrolidin-1-yl)-6-(3-fluoro-5-isobutoxy-phenyl)pyridine-3-carboxamide] | + (“+” means greater than 10 uM)
CC(C)Oc1ccc(-c2ccc(C(=O)NS(=O)(=O)c3ccn[nH]3)c(N3[C@H](C)CC[C@@H]3C)n2)cn1 [Compound 1074, 2-[(2S,5R)-2,5-dimethylpyrrolidin-1-yl]-6-(6-isopropoxy-3-pyridyl)-N-(1H-pyrazol-5-ylsulfonyl)pyridine-3-carboxamide] | ++ (“++” means between 3 uM and 10 uM)
CC(C)COc1cc(F)cc(-c2ccc(C(=O)NS(=O)(=O)c3cccc(N)n3)c(OC3C[C@@H]4C[C@@H]4C3)n2)c1 (stereo partly drawn) [Compound 1077, N-[(6-amino-2-pyridyl)sulfonyl]-2-[[(1R,5S)-3-bicyclo[3.1.0]hexanyl]oxy]-6-(3-fluoro-5-isobutoxy-phenyl)pyridine-3-carboxamide] | +++ (“+++” means <3 uM)
Cc1cc(C)c(Oc2nc(-c3ccc(OCC(C)C)cc3)ccc2C(=O)NS(=O)(=O)c2ccc[nH]c2=O)c(C)c1 [Compound 1079, 6-(4-isobutoxyphenyl)-N-[(2-oxo-1H-pyridin-3-yl)sulfonyl]-2-(2,4,6-trimethylphenoxy)pyridine-3-carboxamide] | +++ (“+++” means <3 uM)
CC(C)COc1cc(F)cc(-c2ccc(C(=O)NS(=O)(=O)c3ccn[nH]3)c(N3CCC(C)CC3)n2)c1 [Compound 1083, 6-(3-fluoro-5-isobutoxy-phenyl)-2-(4-methyl-1-piperidyl)-N-(1H-pyrazol-5-ylsulfonyl)pyridine-3-carboxamide] | +++ (“+++” means <3 uM)
CC(C)COc1cc(F)cc(-c2ccc(C(=O)NS(=O)(=O)c3ccn[nH]3)c(N3CCC(OCC4CC4)CC3)n2)c1 [Compound 1088, 2-[4-(cyclopropylmethoxy)-1-piperidyl]-6-(3-fluoro-5-isobutoxy-phenyl)-N-(1H-pyrazol-5-ylsulfonyl)pyridine-3-carboxamide] | +++ (“+++” means <3 uM)

More lines, now with the values ahead:

EC30 | SMILES
+++ (“+++” means <3 uM) | COc1cccc2c1C(C)(C(=O)NS(=O)(=O)c1cccc(N)n1)N(Cc1c(C)cc(C)cc1C)C2 (centres unmarked) [Compound 1075, N-[(6-amino-2-pyridyl)sulfonyl]-7-methoxy-1-methyl-2-[(2,4,6-trimethylphenyl)methyl]isoindoline-1-carboxamide]
+++ (“+++” means <3 uM) | CCC(CC)Oc1ccc(-c2ccc(C(=O)NS(=O)(=O)c3cccc(N)n3)c(N3CC(C)CC3(C)C)n2)cn1 (centres unmarked) [Compound 1076, N-[(6-amino-2-pyridyl)sulfonyl]-6-[6-(1-ethylpropoxy)-3-pyridyl]-2-(2,2,4-trimethylpyrrolidin-1-yl)pyridine-3-carboxamide]
++ (“++” means between 3 uM and 10 uM) | Cc1ccc(-c2ccc(C(=O)NS(=O)(=O)c3cccc(N)n3)c(N3[C@H](C)CC[C@@H]3C)n2)cc1 [Compound 1078, N-[(6-amino-2-pyridyl)sulfonyl]-2-[(2R,5S)-2,5-dimethylpyrrolidin-1-yl]-6-(p-tolyl)pyridine-3-carboxamide]
+++ (“+++” means <3 uM) | CC(C)Oc1ccc(-c2ccc(C(=O)NS(=O)(=O)c3cccc(N)n3)c(N3CCC(Oc4ccccc4)CC3)n2)cn1 [Compound 1080, N-[(6-amino-2-pyridyl)sulfonyl]-6-(6-isopropoxy-3-pyridyl)-2-(4-phenoxy-1-piperidyl)pyridine-3-carboxamide]
++ (“++” means between 3 uM and 10 uM) | CC(C)Oc1ccc(-c2ccc(C(=O)NS(=O)(=O)c3cccc(N)n3)c(N3CC[C@H](C)C3)n2)cn1 [Compound 1081, N-[(6-amino-2-pyridyl)sulfonyl]-6-(6-isopropoxy-3-pyridyl)-2-[(3S)-3-methylpyrrolidin-1-yl]pyridine-3-carboxamide]
+ (“+” means greater than 10 uM) | Cc1cc(C)c(Cn2c(C(=O)NS(=O)(=O)c3cccc(N)c3)cc3ccc(C#N)cc32)c(C)c1 [Compound 1082, N-(3-aminophenyl)sulfonyl-6-cyano-1-[(2,4,6-trimethylphenyl)methyl]indole-2-carboxamide]
++ (“++” means between 3 uM and 10 uM) | Cc1ccc(-c2ccc(C(=O)NS(=O)(=O)c3nccnc3N)c(N3CCC(C)CC3)n2)cc1 [Compound 1084, N-(3-aminopyrazin-2-yl)sulfonyl-2-(4-methyl-1-piperidyl)-6-(p-tolyl)pyridine-3-carboxamide]
+++ (“+++” means <3 uM) | Cc1cc(C)c(CN2C(C(=O)NS(=O)(=O)c3ccc[nH]c3=O)c3ccccc3C2(C)C)c(C)c1 (centres unmarked) [Compound 1085, 3,3-dimethyl-N-[(2-oxo-1H-pyridin-3-yl)sulfonyl]-2-[(2,4,6-trimethylphenyl)methyl]isoindoline-1-carboxamide]
++ (“++” means between 3 uM and 10 uM) | CCc1cccc2c(C(=O)NS(=O)(=O)c3cccc(N)n3)n(Cc3c(C)cc(C)cc3C)nc12 [Compound 1086, N-[(6-amino-2-pyridyl)sulfonyl]-7-ethyl-2-[(2,4,6-trimethylphenyl)methyl]indazole-3-carboxamide]
+++ (“+++” means <3 uM) | CCC1CCCN1c1nc(-c2ccc(OC(C)C)nc2)ccc1C(=O)NS(=O)(=O)c1cccc(N)n1 (centres unmarked) [Compound 1087, N-[(6-amino-2-pyridyl)sulfonyl]-2-(2-ethylpyrrolidin-1-yl)-6-(6-isopropoxy-3-pyridyl)pyridine-3-carboxamide]
